{"source": "patent US11980209B2", "about": "“Consumables” (GIVAUDAN SA, priority 2007, dated 2024)", "tested_on": "perceived sweetness (sweet sensitive panelists)", "assay": "Sweetness enhancement by trilobatin in yoghurt (Example 9)", "format": "in vivo, human", "method": "Trilobatin was tested by 6 sweet sensitive panelists in plain nonfat yoghurt.\nSamples of 62.5 ppm, 125 ppm, and 500 ppm trilobatin in yoghurt sweetened with 5% sucrose were compared by panelists to a 5% sucrose sweetened yoghurt and a 7% sucrose sweetened yoghurt sample; the results are indicated in the table below.", "key": {"[1]": {"details": "62.5 ppm trilobatin in yoghurt sweetened with 5% sucrose"}, "[2]": {"details": "125 ppm trilobatin in yoghurt sweetened with 5% sucrose"}, "[3]": {"details": "500 ppm trilobatin in 5% sucrose yoghurt"}}}
{"smiles": "O=C(CCc1ccc(O)cc1)c1c(O)cc(O[C@@H]2O[C@H](CO)[C@@H](O)[C@H](O)[C@H]2O)cc1O", "note": "[trilobatin, 1-[4-(beta-D-glucopyranosyloxy)-2,6-dihydroxyphenyl]-3-(4-hydroxyphenyl)-1-propanone]", "values": [{"measurement": "sweetness trilobatin compared to 5% sucrose sample", "setting": "[1]", "value": "+ sweeter"}, {"measurement": "sweetness trilobatin compared to 7% sucrose sample", "setting": "[1]", "value": "less sweet"}, {"measurement": "sweetness trilobatin compared to 5% sucrose sample", "setting": "[2]", "value": "++ sweeter"}, {"measurement": "sweetness trilobatin compared to 7% sucrose sample", "setting": "[2]", "value": "less sweet"}, {"measurement": "sucrose level that the 5% sucrose sample tastes like", "setting": "[3]", "value": 7, "unit": "%"}, {"measurement": "sweetness enhancement effect equivalent to added sucrose", "setting": "[3]", "value": 1, "unit": "% sucrose"}]}
